Results as given in the OPERA property sets (Mansouri et al. 2018).
Where a SMILES comes first, the peptide text is derived from it.

Row | SMILES | logP
1 | CC(C)c1cccc(C(C)C)c1NC(=O)CC(=O)C1(c2ccccc2)CCCC1 | 4.55
2 | CCCCCN(CCCCC)CC(O)c1ccccc1 (stereo not given) | 2.86
3 | OCCNc1ncnc2nc[nH]c12 | -0.18
4 | COc1ccc(CCNCC(O)COc2ccc(-c3nc(Br)c[nH]3)cc2)cc1OC (stereo not given) | 3.2
5 | NC(=S)NN=C(c1ccccc1)c1ccccn1 | 1.92
6 | CCC(C)NC(=O)NN (stereo not given) | -0.84
7 | O=c1[nH]c2cc(Cl)ccc2c(O)c1-c1cccc(Cc2ccc(CCN3CCOCC3)cc2)c1 | 5.2
8 | COC(=O)C(C)=CC1C(C(=O)OCc2cccc(C(=O)c3ccccc3)c2)C1(C)C (stereo not given) | 5.45
9 | OCCNc1ncnc2c1ncn2C1OC(CO)C(O)C1O (stereo not given) | -1.13
10 | CC(C)C(N)C(=O)NCC(=O)NC(Cc1ccccc1)C(=O)NC(C(=O)NC(Cc1ccccc1)C(=O)O)C(C)C (stereo not given) (H-VGFVF-OH; configuration not given here) | -0.5
11 | CCCC(=NOCC)C1=C(O)CC2(CC(C)CC(C)C2)OC1=O (stereo not given) | 4.47
12 | CC(C)C(N)C(=O)NC(Cc1ccccc1)C(=O)NC(Cc1ccc(O)cc1)C(=O)O (stereo not given) | -1.5
13 | CCOC(=O)C1=C(C)NC(C)=C(C(=O)OC)C1c1cccc(OC)c1OC (stereo not given) | 3.58
14 | CC1CC2OC(=O)C(C)C2C(O)C2(C)C(=O)C=CC12 (stereo not given) | 0.53
15 | CC=C(C)C(=O)OC1CC(C)CCC1C(C)C (stereo not given) | 6.2
16 | CC(=O)OC1CCCC2(C)CCC(C(C)(C)OC(C)=O)CC12 (stereo not given) | 5.06
17 | CCCCNC(C)CO (stereo not given) | 1.19
18 | COC(=O)C(C)NP(=O)(OCC1C=CC(n2cc(C)c(=O)[nH]c2=O)O1)Oc1ccc(C(F)(F)F)cc1 (stereo not given) | 1.57
19 | COC(=O)C(C)NP(=O)(OCC1C=CC(n2cc(C)c(=O)[nH]c2=O)O1)Oc1ccccc1 (stereo not given) | 1.04
20 | COC(=O)C(C)=CC1C(C(=O)OCc2cccc(COc3ccccc3)c2)C1(C)C (stereo not given) | 6.06
21 | CCCCCCCNc1ncnc2nc[nH]c12 | 3.71

Row | SMILES | logP
22 | O=C1N=C(N2CCOCC2)CN1Cc1c(Cl)cccc1Cl | 1.3
23 | OC(CCCN1CCC(C(O)(c2ccccc2)c2ccccc2)CC1)c1ccccc1 (stereo not given) | 3.9
24 | CCCCCCCCNCCO | 2.75
25 | Cc1ccnc2c1NC(=O)c1cccnc1N2C1CC1 | 1.81
26 | CCCCC(O)C(CCCCOc1cccc(C)c1)n1cncn1 (stereo not given) | 3.6
27 | CCC(C)Nc1nc(N)nc(Cl)n1 (stereo not given) | 1.86
28 | CC(C)=CCNc1ncnc2c1ncn2[C@@H]1O[C@H](CO)[C@@H](O)[C@H]1O | 1.3
29 | N#CNc1ccccc1 | 1.87
30 | CCCN(CCCC(NC(C)=O)C(=O)NCc1ccccc1)C(=O)N(CCCl)N=O (stereo not given) | 1.57
31 | C=C1CCCC2(C)CCC(C(C)(C)O)CC12 (stereo not given) | 4.64
32 | CN(C)CC(c1ccccc1)c1ccccc1 | 3.58
33 | Nc1nnnn1-c1cccc2ccccc12 | 1.72
34 | COC1(OC)C(N2CCOCC2)=NC(=O)N1c1ccc(Cl)cc1 | 1.7
35 | CCCN(CCC)C1CCc2c(O)cccc2C1C (stereo not given) | 4.06
36 | CCCCCCNCc1ccc(C)cc1 | 4.96
37 | O=c1cc(-c2ccc(Cl)cc2Cl)oc2ccccc12 | 4.13
38 | O=C(CCCN=C=S)c1cccnc1 | 1.79
39 | Cc1cc2c(s1)Nc1ccccc1N=C2N1CCN(C)CC1 | 3
40 | CCNC(=S)SC | 1.57
41 | NC(Cc1ccccc1)C(=O)NC(Cc1ccccc1)C(=O)NC(Cc1ccccc1)C(=O)NC(Cc1ccccc1)C(=O)O (stereo not given) (H-FFFF-OH; configuration not given here) | 1.63
42 | CC(C)CC(N)C(=O)N1CCCC1C(=O)NC(CC(C)C)C(=O)O (stereo not given) | -1.56

Row | SMILES | logP
43 | CCCCOc1ccccc1NC(=O)OCCN1CCCCC1 | 4.79
44 | CCOc1cccc2nc(N)nc(N)c12 | 1.69
45 | Clc1ccccc1N1CCN(CCCOn2nnc3ccccc32)CC1 | 4.1
46 | COc1ccc(-c2ccoc2)cc1CNC1CCCNC1c1ccccc1 (stereo not given) | 4.2
47 | CC(C)(C)n1cc(C(=O)O)c(=O)c2cc(F)c(N3CC4CC3CN4)nc21 (stereo not given) | -0.41
48 | O=C(O)CCCCON=C(c1cncnc1)c1cccc(C(F)(F)F)c1 | 3.26
49 | O=S(=O)(NC(=S)N1CCCCC1)c1cnccc1NC1CCCCCCC1 | 4.5
50 | CCCNc1ccncc1S(=O)(=O)NC(=NC#N)NC(C)C | 0.35
51 | Nc1nnnn1-c1ccccc1Cl | 0.87
52 | CC1=C(C#N)C(C)(C)C(C#N)=C(C)N1 | 2.47
53 | CCCOCCCNc1[nH]cnc2ncnc1-2 | 1.74
54 | CC1(C(Cl)Cl)C2CC(Cl)(Cl)C1(C(Cl)Cl)CC2(Cl)Cl (stereo not given) | 5.9
55 | NC1=NC(C2OCCc3ccccc32)CS1 (stereo not given) | 1.79
56 | COC(=O)C1=C(C)NC(C)=C(C(=O)OCc2cccnc2)C1c1cccc2c1OCO2 (stereo not given) | 3.61
57 | Cc1cccc(N2CCN(CC3CN=C(N)O3)CC2)c1 (stereo not given) | 1.46
58 | C#CCC(O)(c1ccc(C(C)C)cc1)c1cccnc1 (stereo not given) | 2.16
59 | CCOP(=O)(OCC)C(Cl)(Cl)P(=O)(OCC)OCC | 1.31
60 | CCCCCI | 3.62
61 | CSCCC(NC(=O)C(Cc1ccccc1)NC(=O)CNC(=O)CNC(=O)C(N)Cc1ccc(O)cc1)C(=O)O (stereo not given) | -1.39
62 | C=CCNC(=O)N(CCCCC(NC(C)=O)C(=O)NCc1ccccc1)Cc1ccccc1 (stereo not given) | 1.98
63 | CCC(C)C(N)C(=O)NC(CO)C(=O)NC(C(=O)O)C(C)CC (stereo not drawn) (H-Ile-Ser-Ile-OH; configuration not given here) | -2.64

Row | SMILES | logP
64 | O=C1C=C(N2CCCCC2)C(=O)N1c1ccc(Cl)cc1 | 3.4
65 | CC(C)CC(NC(=O)C(CC(C)C)NC(=O)C(N)CO)C(=O)O (stereo not drawn) (H-Ser-Leu-Leu-OH; configuration not given here) | -2.03
66 | C=CC1(C)C=C2CCC3C(C)(CO)CCCC3(C)C2CC1 (stereo not given) | 6.85
67 | S=C=NCCCCc1ccccc1 | 4
68 | CNC(=S)OCCn1c([N+](=O)[O-])cnc1C | 1.12
69 | CC(=O)N(c1nc(=O)n(C(C)C)c(=O)n1C)C(C)C | 0.18
70 | COc1ccccc1CNC1CCCNC1c1ccccc1 (stereo not given) | 3.1
71 | COc1ccc(CCNCC(O)CON=C(C2CC2)C2CC2)cc1OC (stereo not given) | 2.42
72 | c1cc2cc3ccc4c(c3nc2c2c1NCOC2)COCN4 | 2.17
73 | NC(N)=NCCCNC(=O)[C@@H]1CCCCN1C(=O)[C@@H](CC1CCCCC1)NCC(=O)O | -0.1
74 | C=CCN(N=O)C(=O)N(CCCC(NC(C)=O)C(=O)NCc1ccccc1)Cc1ccccc1 (stereo not given) | 2.16
75 | CCOc1cc2ncnc(Nc3cc(F)cc(C(F)(F)F)c3)c2cc1OCC | 5.49
76 | OC(CNCC(O)C1CCc2cc(F)ccc2O1)C1CCc2cc(F)ccc2O1 (stereo not given) | 4.04
77 | CCCCCNc1ncnc2c1ncn2C1OC(CO)C(O)C1O (stereo not given) | 1.67
78 | O=C(O)CCCCON=C(c1ccccc1)c1cncnc1 | 2.65
79 | CC(C)NCC(O)COc1ccc(-c2ncc[nH]2)cc1 (stereo not given) | 1.4
80 | C1CCSC1 | 1.61
81 | Brc1ccc2ccc3ccc(Br)c4ccc1c2c34 | 6.73
82 | CC(C)C(NC(=O)C(Cc1ccccc1)NC(=O)CNC(=O)CNC(=O)C(N)Cc1c[nH]c2ccccc12)C(=O)O (stereo not given) (H-WGGFV-OH; configuration not given here) | -0.44
83 | OC(CNC1CCCC1)CON=C(C1CC1)C1CC1 (stereo not given) | 2.46
84 | O=C1NC(c2ccccc2)(c2ccccc2)C(=O)N1CO | 2.23

Further lines, results first:

Row | logP | SMILES
85 | 2 | CCOC(=O)Nc1ccc2cc3ccc4c(c3nc2c1)COC(=O)N4
86 | 1.68 | CC1(C)N(O)C(c2ccc([N+](=O)[O-])cc2)=[N+]([O-])C1(C)C
87 | 1.09 | CCN(CC)CC(=O)Nc1ccc(N)cc1
88 | 2.51 | CC(C)NC(=NC#N)NS(=O)(=O)c1cnccc1Nc1cccc(I)c1
89 | 1.42 | CC(=O)NC1=C(Cl)C(=O)c2ccccc2C1=O
90 | 3.1 | Cc1nc2c3c(c(C(=O)N4CC(O)C4)cn2c1C)CCC(c1ccccc1)O3 (stereo not given)
91 | 1.99 | CCCCc1cnc(C2=NC(C)(C(C)C)C(=O)N2)c(C(=O)O)c1 (stereo not given)
92 | 2.79 | Cc1coc2cc3oc(=O)ccc3c(C)c12
93 | 1.67 | Cc1ccccc1Nc1ccncc1S(=O)(=O)NC(=NC#N)NC(C)C
94 | 1.4 | O=C1N=C(N2CCOCC2)CN1Cc1ccc(Br)cc1
95 | 0.91 | Nc1nnnn1-c1cccc(F)c1
96 | 3.15 | CC(=O)c1ccc(Br)cc1O
97 | -1.15 | CC(C)CC(N)C(=O)NC(Cc1ccccc1)C(=O)O (stereo not drawn) (H-Leu-Phe-OH; configuration not given here)
98 | 0.07 | O=C1CNC(=O)C(Cc2c[nH]c3ccccc23)N1 (stereo not given)
99 | 3.5 | COC(=O)c1c(N2CCOCC2)c(-c2ccc(Cl)cc2)cn1C(C)=O
100 | 2.57 | CN(C)CCOc1c(Cl)cccc1Cl
101 | 3.63 | C=C(Cl)CON=C(C)c1cccc(Oc2nc(OC)cc(OC)n2)c1C(=O)OC
102 | 0.8 | Cc1c(O)c(=O)ccn1CCCOC(=O)c1ccc(O)cc1
103 | 2.24 | CCC(CC)(C(=O)OC)S(=O)(=O)c1ccc([N+](=O)[O-])cc1
104 | 1.79 | CCOc1ccc(C(=O)OCCCn2ccc(=O)c(O)c2C)cc1
105 | 0.36 | NC(=O)Nc1cccc(O)c1

Row | logP | SMILES
106 | 3.73 | C=C(Br)CON=C(C)c1cccc(Oc2nc(OC)cc(OC)n2)c1C(=O)OC
107 | 2.28 | CCCN(C)CC(=O)Nc1c(C)cccc1C
108 | 4.75 | CCCC(=NOCC)C1=C(O)CC(c2ccccc2)(c2ccccc2)OC1=O
109 | 3.83 | Cc1ccc(CO)c(C=NNC(=O)c2cccc(Cl)c2)c1O
110 | 2.77 | O=C(O)CCCCON=C(c1cccc(C(F)(F)F)c1)c1ncccn1
111 | 2.22 | CCN(CC)CCNC(=O)c1c(C)cccc1C
112 | 2.65 | CC(C)(C)OC(=O)NC(Cc1c[nH]c2ccccc12)C(=O)O (stereo not given)
113 | 2.21 | O=C1c2ccccc2-c2nnc(C(F)(F)F)cc21
114 | 3.03 | Cc1ccc(CO)c(C=NNC(=O)c2ccc([N+](=O)[O-])cc2)c1O
115 | 1.6 | CN(C)C1=NC(=O)N(c2ccc(Cl)cc2)C1
116 | 2.09 | COc1ccc2c(c1)OCN(CCO[N+](=O)[O-])C2=O
117 | 2.05 | Oc1ccccc1CNc1ncnc2nc[nH]c12
118 | 3.26 | Cc1cc2c(o1)c(C)c(C)c1ccc(=O)oc12
119 | 3.51 | CCOC(=O)C(C)c1ccc2cc(OC)ccc2c1 (stereo not given)
120 | 5.5 | CCOC(=O)c1cn2c(C)c(C)nc2c2c1CCC(c1ccccc1)O2 (stereo not given)
121 | 3.28 | Cc1coc2c1c(C)cc1oc(=O)cc(C)c12
122 | 1.3 | CC(=NNC(=O)c1ccc(N)cc1)c1cnccn1
123 | -2.03 | CSCCC(N)C(=O)NC(Cc1ccc(O)cc1)C(=O)O (stereo not drawn) (H-Met-Tyr-OH; configuration not given here)
124 | 1.68 | COc1cc2ccncc2cc1OC
125 | 3.26 | O=C(O)CCCCON=C(c1cccc(C(F)(F)F)c1)c1cnccn1
